US20220268782A1, “METHODS FOR PREDICTING AND TREATING CARDIAC DYSFUNCTION” (INSERM (INSTITUT NATIONAL DE LA SANTÉ EAT DE LA RECHERCHE …, priority 2019, published 2022)

Assays:
Format in all cases: cell-based
C2C12 myoblasts [1] = assay: Oxidative stress in C2C12 cells (CellROX cytosolic superoxide, MitoSOX mitochondrial superoxide, GSH)
Method: (§1) C2C12 (ATCC® CRL-1772™) myoblasts maintained in DMEM supplemented with L-glutamine (2 mM), penicillin/streptomycin (1%) and 5% fetal bovine serum (FBS) were seeded either at a density of 5×10^4 cells (<50%) per well in 24-well plates or 10^4 cells in 4-well chamber slides. Cells were with L-phenylalanine (1-10 mM)+BH4 (10 μM) and incubation with increasing concentrations of N-acetylcysteine (0.5, 2.5, 5 mM) vs. vehicle overnight as indicated. Cells were analysed for oxidative stress with MitoSOX™ (mitochondrial superoxide; 5 μM, ThermoFisher Scientific), CellROX™ (cytosolic superoxide; 5 μM, ThermoFisher Scientific), gene or protein expression, or various metabolites (see below).
(§2) Levels of reduced glutathione (GSH; ThermoFisher), phenylalanine (BioVision) and tyrosine (BioVision) were determined from cells or plasma, with respective agents/kits following the manufacturer's recommendations. Specifically, GSH levels were estimated with the aid of ThiolTracker™ Violet fluorescent probe (ThermoFisher). Plasma and liver phenylalanine levels were determined using an enzyme-coupled, fluorometric method (BioVision). Briefly, samples were deproteinized via trichloroacetate precipitation, neutralised, tyrosinase-treated (to remove tyrosine that may interfere) and diluted to fit in the standard curve. Fluorescence reading took place at 587 nm after excitation at 535 nm. Levels of tyrosine in cells or conditioned media were determined after deproteinization using 10 kDa cut-off columns with an enzyme-coupled, colorimetric method with reading at 491 nm (BioVision).

C2C12 myoblasts [2] = assay: PA-induced senescence in C2C12 myoblasts (immunoblot of senescence markers, EdU incorporation); conditions: C2C12 cells
Method: (§3) Cells were washed briefly with ice-cold 1×PBS, scraped in 400 μL T-PER lysis buffer (ThermoFisher) supplemented with 0.1 mM phenylmethylsulphonyl fluoride (PMSF) and protease/phosphatase inhibitor cocktail tablet (ThermoFisher). Pulverised tissue samples (20-30 mg) were lysed in the same buffer accelerated by sonication and passing through a 21 G needle. To pellet any debris, lysates were centrifuged at 10,000 g for 10 minutes at 4° C., with the supernatant transferred to fresh tubes. Protein concentrations were determined with Bradford assay (Biorad) and lysates were diluted to equal concentration with lysis buffer. Protein lysates were then mixed with Laemmli buffer, vortexed and heated to 95° C. for 5 min. Equal amounts of protein lysates in parallel with protein molecular weight marker (ThermoFisher) were loaded onto pre-cast polyacrylamide gels (Nupage 10 or 12% Bis Tris gel, Novex, Invitrogen) and separated by electrophoresis at 200V for 1 hour. Proteins were transferred onto polyvinylidene difluoride (PVDF) membrane (Invitrogen) using an electrophoretic transfer cell (Mini Trans-Blot, Bio-Rad) in ice-cold transfer buffer (48 mM Tris base, […], 0.1% SDS, 20% methanol (v/v)) at 300 mA for 2 hours. Membranes were blocked in 1× skimmed milk (ThermoFisher) for 1 hour at room temperature, followed by overnight incubation with primary antibody diluted in blocking buffer at 4° C. Next day membranes were washed, followed by 60 minutes incubation in the corresponding horseradish peroxidase (HRP)-conjugated secondary antibody diluted 1:2000-10000 in blocking buffer (all Abcam). Blots were developed using enhanced chemiluminescence (ECL) reagents (normal, Prime & Select) and digital images were acquired using an imaging system (Azure Biosystems). Membranes were usually stripped of antibodies and reprobed with an antibody targeting a protein serving as loading control (α-actinin for hearts & β-actin for all others). For this procedure, membranes were placed in Guanidine-HCl-based stripping solution (6M Guanidine-HCl, 0.2% Nonidet P-40, 0.1M β-mercaptoethanol, 20 mM Tris-HCl, pH 7.5 and 100 mM 2-mercaptoethanol) and incubated for 10 minutes at room temperature with gentle agitation, followed by extensive washing and re-blocking.^5
as §1

AML-12 hepatocytes = assay: AML-12 hepatocytes: p21, Pah immunoblot and tyrosine production; conditions: Nutlin3a vs. vehicle
Method: as §3
AML12 cells (ATCC® CRL-2254™) were maintained in DMEM/F-12 (1:1) culture media supplemented with 10% FBS, 10 μg/ml insulin, 5.5 μg/ml transferrin, 5 ng/ml selenium, 40 ng/ml dexamethasone and 1% penicillin/streptomycin. Cells were sub-cultivated from subconfluent flasks with a ratio from 1:4 to 1:8. For WB analysis, cells were plated on 6-well plates and harvested at 80-90% of confluence. AML12 cells were transfected with indicated siRNA (Table 2) at 80% confluence using Lipofectamine RNAiMAX Transfection Reagent (ThermoFischer Scientific 13778030) following the manufacturer's instructions. Transfection efficiency was constantly checked using BLOCK-IT Alexa Fluor Red Fluorescent Control (ThermoFischer Scientific 14750100).
as §2

## N[C@@H](Cc1ccc(Cl)cc1)C(=O)O (racemic) [4-CPA, 4-chlorophenylalanine]
C2C12 myoblasts [1]; PA + BH4 + 4-CPA, FIG. 1f
  BH4 rescue of superoxide levels: prevented
C2C12 myoblasts [2]; PA 5 mM + BH4 10 μM + 4-CPA 1.5 mM, FIG. 1c-d
  BH4 antagonism of PA-dependent senescence: reversed

## CC(=O)N[C@@H](CS)C(=O)O [NAC, N-acetylcysteine]
C2C12 myoblasts [1]; PA plus co-treatment (BH4 10 μM or NAC), FIG. 1f
  cytosolic superoxide levels under PA treatment: restored normal
C2C12 myoblasts [1]; PA plus co-treatment, data not shown
  reduced glutathione (GSH) levels under PA treatment: restored normal
C2C12 myoblasts [2]; PA + N-acetylcysteine (0.5, 2.5, 5 mM), data not shown
  p21 induction by PA: failed to prevent

## COc1ccc(C2=N[C@@H](c3ccc(Cl)cc3)[C@@H](c3ccc(Cl)cc3)N2C(=O)N2CCNC(=O)C2)c(OC(C)C)c1 [Nutlin3a]
AML-12 hepatocytes; FIG. 4o
  Pah: downregulated
  hepatocyte senescence (i.e. p-p53 and p21): induced
AML-12 hepatocytes; FIG. 4p
  tyrosine production (tyrosine levels in media): depressed
